Species on record: Rattus norvegicus
Assay: Open TG-GATES - Regimen: Single
Type: toxicity, organism-based, Sprague-Dawley
Set-up: regimen Single, gender Male, age 6 weeks
Conditions: in vivo, po, 10 mg/kg, route gavage, dose level Middle; for APTT / Bas / Eos / Fbg / Hb / Ht / Lym / MCH / MCHC / MCV / Mono / Neu / PT / Plat / RBC / Ret / WBC: tissue Blood; for KIDNEY_L / KIDNEY_R / KIDNEY_TOTAL: tissue Kidney; for LIVER: tissue Liver; for A/G / ALP / ALT / AST / BUN / CRE / Ca / Cl / DBIL / GLC / IP / K / LDH / Na / PL / RALB / TBIL / TC / TG / TP / gamma-GTP: tissue Plasma

CN(C)CCC(c1ccc(Cl)cc1)c1ccccn1 (configuration not stated) [CHLORPHENIRAMINE] gave a TERMINAL_BW (3 h) of 196.8 g, an APTT (3 h) of 19.7 s and a Bas (3 h) of 0%. The Eos (3 h) was 0.4%, the Fbg (3 h) was 295.8 mg/dL and the Hb (3 h) was 13.5 g/dL. The Ht (3 h) was 42%, the Lym (3 h) was 77.4% and the MCH (3 h) was 21.3 pg. For the same molecule, the MCHC (3 h) was 32.1%, the MCV (3 h) was 66.1 fL and the Mono (3 h) was 3%. It also gave a Neu (3 h) of 18.2%, a PT (3 h) of 14.7 s and a Plat (3 h) of 126.4 x10_4/uL. The RBC (3 h) was 634 x10_4/ul, the Ret (3 h) was 9.7% and the WBC (3 h) was 73.4 x10_2/uL. It also gave a KIDNEY_L (3 h) of 0.8 g, a KIDNEY_R (3 h) of 0.8 g and a KIDNEY_TOTAL (3 h) of 1.6 g. The LIVER (3 h) was 9 g, the A/G (3 h) was 0.9 and the ALP (3 h) was 1551 IU/L. For the same molecule, the ALT (3 h) was 47.4 IU/L, the AST (3 h) was 74.6 IU/L and the BUN (3 h) was 9.2 mg/dL. The CRE (3 h) was 0.2 mg/dL, the Ca (3 h) was 10.9 mg/dL and the Cl (3 h) was 107.6 meq/L. The DBIL (3 h) was 0.006 mg/dL, the GLC (3 h) was 180.2 mg/dL and the IP (3 h) was 10.3 mg/dL. The K (3 h) was 4.1 meq/L, the LDH (3 h) was 200.6 IU/L and the Na (3 h) was 144.6 meq/L. For the same molecule, the PL (3 h) was 156 mg/dL, the RALB (3 h) was 2.6 g/dL and the TBIL (3 h) was 0.046 mg/dL. The TC (3 h) was 84.6 mg/dL, the TG (3 h) was 75 mg/dL and the TP (3 h) was 5.5 g/dL. It also gave a gamma-GTP (3 h) of 1 IU/L, a TERMINAL_BW (6 h) of 195.1 g and an APTT (6 h) of 21.5 s. It also gave a Bas (6 h) of 0%, an Eos (6 h) of 1% and a Fbg (6 h) of 297 mg/dL. It also gave a Hb (6 h) of 13.2 g/dL, a Ht (6 h) of 41% and a Lym (6 h) of 74.4%. It also gave an MCH (6 h) of 20.6 pg, an MCHC (6 h) of 32.2% and an MCV (6 h) of 64 fL. It also gave a Mono (6 h) of 3%, a Neu (6 h) of 20.8% and a PT (6 h) of 14.9 s. For the same molecule, the Plat (6 h) was 129.3 x10_4/uL, the RBC (6 h) was 641.2 x10_4/ul and the Ret (6 h) was 8.8%. It also gave a WBC (6 h) of 74.4 x10_2/uL, a KIDNEY_L (6 h) of 0.8 g and a KIDNEY_R (6 h) of 0.9 g. For the same molecule, the KIDNEY_TOTAL (6 h) was 1.7 g, the LIVER (6 h) was 8.4 g and the A/G (6 h) was 0.9. The ALP (6 h) was 1438.8 IU/L, the ALT (6 h) was 42.2 IU/L and the AST (6 h) was 73.4 IU/L. For the same molecule, the BUN (6 h) was 7.8 mg/dL, the CRE (6 h) was 0.2 mg/dL and the Ca (6 h) was 10.5 mg/dL. For the same molecule, the Cl (6 h) was 107 meq/L, the DBIL (6 h) was 0.006 mg/dL and the GLC (6 h) was 177.4 mg/dL. For the same molecule, the IP (6 h) was 10.1 mg/dL, the K (6 h) was 4.2 meq/L and the LDH (6 h) was 176 IU/L. For the same molecule, the Na (6 h) was 142.6 meq/L, the PL (6 h) was 140.6 mg/dL and the RALB (6 h) was 2.5 g/dL. For the same molecule, the TBIL (6 h) was 0.04 mg/dL, the TC (6 h) was 80.8 mg/dL and the TG (6 h) was 42.6 mg/dL. It also gave a TP (6 h) of 5.5 g/dL, a gamma-GTP (6 h) of 1.6 IU/L and a TERMINAL_BW (9 h) of 192.7 g. It also gave an APTT (9 h) of 17.7 s, a Bas (9 h) of 0% and an Eos (9 h) of 1%. It also gave a Fbg (9 h) of 292.6 mg/dL, a Hb (9 h) of 13.3 g/dL and a Ht (9 h) of 41.3%. The Lym (9 h) was 76.2%, the MCH (9 h) was 20.8 pg and the MCHC (9 h) was 32.3%. It also gave an MCV (9 h) of 64.3 fL, a Mono (9 h) of 1.8% and a Neu (9 h) of 20.6%. It also gave a PT (9 h) of 15.1 s, a Plat (9 h) of 123.4 x10_4/uL and an RBC (9 h) of 643.8 x10_4/ul. For the same molecule, the Ret (9 h) was 8.5%, the WBC (9 h) was 67.8 x10_2/uL and the KIDNEY_L (9 h) was 0.9 g. It also gave a KIDNEY_R (9 h) of 0.9 g, a KIDNEY_TOTAL (9 h) of 1.8 g and an LIVER (9 h) of 7.5 g. The A/G (9 h) was 0.9, the ALP (9 h) was 1406.4 IU/L and the ALT (9 h) was 35.2 IU/L. The AST (9 h) was 69 IU/L, the BUN (9 h) was 7.2 mg/dL and the CRE (9 h) was 0.1 mg/dL. For the same molecule, the Ca (9 h) was 10.4 mg/dL, the Cl (9 h) was 105.6 meq/L and the DBIL (9 h) was 0.008 mg/dL. For the same molecule, the GLC (9 h) was 162 mg/dL, the IP (9 h) was 10.4 mg/dL and the K (9 h) was 4 meq/L. The LDH (9 h) was 145.2 IU/L, the Na (9 h) was 142.4 meq/L and the PL (9 h) was 131.2 mg/dL. For the same molecule, the RALB (9 h) was 2.5 g/dL, the TBIL (9 h) was 0.054 mg/dL and the TC (9 h) was 80 mg/dL. For the same molecule, the TG (9 h) was 37.8 mg/dL, the TP (9 h) was 5.5 g/dL and the gamma-GTP (9 h) was 1.4 IU/L. For the same molecule, the TERMINAL_BW (24 h) was 209.2 g, the APTT (24 h) was 21.6 s and the Bas (24 h) was 0%. It also gave an Eos (24 h) of 0.8%, a Fbg (24 h) of 287.6 mg/dL and a Hb (24 h) of 12.5 g/dL. For the same molecule, the Ht (24 h) was 38.8%, the Lym (24 h) was 76.4% and the MCH (24 h) was 20.7 pg. It also gave an MCHC (24 h) of 32.4%, an MCV (24 h) of 63.9 fL and a Mono (24 h) of 3.8%. The Neu (24 h) was 18.2%, the PT (24 h) was 14.8 s and the Plat (24 h) was 118.2 x10_4/uL. For the same molecule, the RBC (24 h) was 606.6 x10_4/ul, the Ret (24 h) was 8.5% and the WBC (24 h) was 79.8 x10_2/uL. It also gave a KIDNEY_L (24 h) of 0.9 g, a KIDNEY_R (24 h) of 0.9 g and a KIDNEY_TOTAL (24 h) of 1.7 g. The LIVER (24 h) was 9 g, the A/G (24 h) was 0.9 and the ALP (24 h) was 1569.6 IU/L. The ALT (24 h) was 46.4 IU/L, the AST (24 h) was 77.8 IU/L and the BUN (24 h) was 14.8 mg/dL. It also gave a CRE (24 h) of 0.2 mg/dL, a Ca (24 h) of 10.8 mg/dL and a Cl (24 h) of 106.6 meq/L. For the same molecule, the DBIL (24 h) was 0.01 mg/dL, the GLC (24 h) was 184.2 mg/dL and the IP (24 h) was 8.2 mg/dL. It also gave a K (24 h) of 4.3 meq/L, an LDH (24 h) of 132.2 IU/L and a Na (24 h) of 142.8 meq/L. For the same molecule, the PL (24 h) was 142.8 mg/dL, the RALB (24 h) was 2.6 g/dL and the TBIL (24 h) was 0.04 mg/dL. For the same molecule, the TC (24 h) was 76.4 mg/dL, the TG (24 h) was 82.6 mg/dL and the TP (24 h) was 5.5 g/dL. The gamma-GTP (24 h) was 1.2 IU/L.

— ChEMBL document CHEMBL3885861, “Open TG-GATES”
